Laboratory results from PMC3917480 (Bioorganic & medicinal chemistry, 2013).
Where a SMILES comes first, the peptide text is derived from it. The star is where a group is joined. X3 = O=C(c1ccc(N2CCNCC2)cn1)*; X5 = CC(C)COc1cccc(CC(=O)*)c1; X6 = CCCOc1cccc(CC(=O)*)c1; X2 = CCOc1cccc(CC(=O)*)c1

Assays:
CDK4/cyclin D1 = CDK4/cyclin D1 (Homo sapiens, UniProt P24385); assay: CDK4D1 fluorescence polarization competitive binding assay; conditions: for binding affinity (in words), CDK4D1: FLIP context
CDK2/cyclin A = CDK2/cyclin A (Homo sapiens, UniProt P20248); assay: CDK2A2 fluorescence polarization competitive binding assay; conditions: FLIP context

CDK4/cyclin D1, sequence (P24385 whole entry): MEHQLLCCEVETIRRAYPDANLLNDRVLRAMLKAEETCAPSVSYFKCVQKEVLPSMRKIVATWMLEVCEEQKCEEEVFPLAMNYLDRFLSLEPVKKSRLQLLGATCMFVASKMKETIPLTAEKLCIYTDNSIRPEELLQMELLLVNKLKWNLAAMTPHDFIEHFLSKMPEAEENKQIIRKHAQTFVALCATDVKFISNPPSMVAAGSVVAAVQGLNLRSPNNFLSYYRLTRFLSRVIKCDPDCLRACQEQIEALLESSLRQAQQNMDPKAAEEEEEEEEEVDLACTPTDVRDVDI
CDK4/cyclin D1, sequence (P11802 whole entry partner): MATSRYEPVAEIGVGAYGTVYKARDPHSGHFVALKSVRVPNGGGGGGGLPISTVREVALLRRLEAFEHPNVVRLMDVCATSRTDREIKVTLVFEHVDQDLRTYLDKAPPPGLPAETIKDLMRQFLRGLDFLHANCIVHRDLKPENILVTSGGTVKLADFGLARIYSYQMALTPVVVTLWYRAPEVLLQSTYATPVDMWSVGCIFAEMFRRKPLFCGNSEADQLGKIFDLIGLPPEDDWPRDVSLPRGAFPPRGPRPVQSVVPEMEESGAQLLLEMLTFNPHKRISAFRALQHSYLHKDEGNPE

Row | SMILES | binding affinity (in words), CDK4D1 (CDK4/cyclin D1) | binding affinity (in words), CDK2A2 (CDK2/cyclin A) | increased potency relative to 525 in CDK4D1 (CDK4/cyclin D1; relative to 525) [fold]
1 | CCCOc1cccc(CC(=O)N[C@@H](CCCNC(=N)N)C(=O)N[C@@H](CC(C)C)C(=O)N[C@H](C(=O)N[C@@H](Cc2ccccc2)C(N)=O)[C@@H](C)CC)c1 [compound 5853] (X6-RLIF-NH2) | None of these analogs in the FLIP context possessed appreciable binding affinity | None of these analogs in the FLIP context possessed appreciable binding affinity | –
2 | CCOc1cccc(CC(=O)N[C@@H](CCCNC(=N)N)C(=O)N[C@@H](CC(C)C)C(=O)N[C@H](C(=O)N[C@@H](Cc2ccccc2)C(N)=O)[C@@H](C)CC)c1 [compound 5854] (X2-RLIF-NH2) | None of these analogs in the FLIP context possessed appreciable binding affinity | None of these analogs in the FLIP context possessed appreciable binding affinity | –
3 | CC[C@H](C)[C@H](NC(=O)[C@H](CC(C)C)NC(=O)[C@H](CCCNC(=N)N)NC(=O)Cc1cccc(OCC(C)C)c1)C(=O)N[C@@H](Cc1ccccc1)C(N)=O [compound 5855] (X5-RLIF-NH2) | None of these analogs in the FLIP context possessed appreciable binding affinity | None of these analogs in the FLIP context possessed appreciable binding affinity | –
4 | CC[C@H](C)[C@H](NC(=O)[C@H](CC(C)C)NC(=O)[C@H](CCCNC(=N)N)NC(=O)c1ccc(N2CCNCC2)cn1)C(=O)N[C@@H](Cc1ccccc1)C(N)=O [compound 5856] (X3-RLIF-NH2) | – | – | 2
